Assay results: US11884631B1 (priority 2023, dated 2024)

Test system: multidrug-resistant (MDR) strains of Mycobacterium tuberculosis
Assay: microbe, parasite or virus in culture
Format: cell-based
Conditions: read-out: MIC (μg/mL) MDR Strain

Question: With `Cc1ccc2c(ccc[n+]2CC(=O)c2ccccc2[N+](=O)[O-])c1.[Br-]` [Compound 3a, 6-Methyl-1-(2-(2-nitrophenyl)-2-oxoethyl)quinolin-1-ium bromide] as the compound, how does the MIC read?
Answer: Its MIC is 64 µg/mL.

Question: How did the MIC turn out when `Cc1ccc2c(ccc[n+]2CC(=O)c2cc(C(F)(F)F)cc(C(F)(F)F)c2)c1.[Br-]` [Compound 3c, 1-(2-(3,5-Bis(trifluoromethyl)phenyl)-2-oxoethyl)-6-methylquinolin-1-ium bromide] was run?
Answer: Its MIC is 32 µg/mL.

Question: Which MIC does the source give for `Cc1ccc2c(ccc[n+]2CC(=O)c2ccc(F)cc2)c1.[Br-]` [Compound 3b, 1-(2-(4-Fluorophenyl)-2-oxoethyl)-6-methylquinolin-1-ium bromide] here?
Answer: The MIC was 16 µg/mL.
